Results taken from DBAASP.
≈ marks a conversion by molar mass, not a printed value. Where “and” joins values, the source holds several entries; their conditions need not be identical. Equal entries are not always repeated. Each block holds one compound with its values, some of them ahead of it.

Key:
Experiment in all cases: ≥ marks a high value that may be exact or a test limit, other limits are often not marked, values filed in µg/mL are converted to µM
[1] = system: Klebsiella pneumoniae ATCC BAA-1705
[2] = system: Escherichia coli W3110
[3] = system: Candida albicans KCTC 7270
[4] = system: Candida parapsilosis CCARM 14016
[5] = system: Candida tropicalis KCTC 7221
[6] = system: Fusarium verticillioides KCTC 6149
[7] = system: Trichosporon beigelii KCTC 7707
[8] = system: Aspergillus fumigatus KCTC 6145
[9] = system: Candida krusei CCARM 14017
[10] = system: Aspergillus flavus KCTC 6905
[11] = system: Bacillus subtilis ATCC 6633
[12] = system: Serratia marcescens ATCC 4112
[13] = system: Enterobacter cloacae beta-12
[14] = system: Micrococcus luteus A270
[15] = system: Escherichia coli SBS 363
[16] = system: Bacillus megaterium ATCC 10778
[17] = system: Candida tropicalis IOC 4560
[18] = system: Pseudomonas aeruginosa ATCC 27853
[19] = system: Staphylococcus aureus ATCC 29213
[20] = system: Candida albicans MDM8
[21] = system: Escherichia coli 987P
[22] = system: Salmonella enterica subsp. enterica serovar Typhimurium C77-31
[23] = system: Pseudomonas aeruginosa PAO1
[24] = system: Lactiplantibacillus plantarum 8014
[25] = system: Staphylococcus epidermidis ATCC 12228
[26] = system: Candida parapsilosis CGMCC 2.3989
[27] = system: Candida albicans CGMCC 2.2086
[28] = system: Candida tropicalis CGMCC 2.1975
[29] = system: Escherichia coli 078
[30] = system: Escherichia coli UB1005
[31] = system: Escherichia coli K88
[32] = system: Escherichia coli ATCC 25922
[33] = system: Escherichia coli K99
[34] = system: Lacticaseibacillus rhamnosus 7469
[35] = system: Staphylococcus aureus ATCC 25923
[36] = system: Salmonella enterica subsp. enterica serovar Typhimurium ATCC 14028

MIC [1]: 4 µM (≈ 9.58 µg/mL) | MIC [2]: 1 µM (≈ 2.39 µg/mL)
SMILES: CC[C@H](C)[C@H](N)C(=O)N[C@@H](Cc1c[nH]c2ccccc12)C(=O)N[C@@H](Cc1c[nH]c2ccccc12)C(=O)N[C@@H](C)C(=O)N[C@@H](CCCCN)C(=O)N[C@@H](Cc1c[nH]c2ccccc12)C(=O)NCC(=O)N[C@@H](CC(C)C)C(=O)N[C@@H](CCCCN)C(=O)N[C@@H](CC(C)C)C(=O)N[C@@H](CC(C)C)C(=O)N[C@@H](CCCN=C(N)N)C(=O)N[C@@H](Cc1ccc(O)cc1)C(=O)N[C@@H](CCCN=C(N)N)C(=O)N[C@@H](CCCN=C(N)N)C(=O)N[C@@H](Cc1c[nH]c2ccccc12)C(=O)N[C@@H](Cc1ccc(O)cc1)C(=O)O [IWWAKWGLKLLRYRRWY]

MIC [21]: ≥ 64 µM | MIC [22]: ≥ 64 µM | MIC [23]: > 64 µM | MIC [25]: > 64 µM | MIC [26]: ≥ 64 µM | MIC [27]: ≥ 64 µM | MIC [28]: ≥ 64 µM | MIC [29]: ≥ 64 µM | MIC [30]: ≥ 64 µM | MIC [31]: ≥ 64 µM | MIC [32]: > 64 µM | MIC [33]: ≥ 64 µM | MIC [34]: ≥ 64 µM | MIC [35]: 64 µM (≈ 59.5 µg/mL) | MIC [36]: > 64 µM | MIC [18]: > 64 µM | MIC [19]: > 64 µM
SMILES: CC[C@H](C)[C@H](N)C(=O)N[C@@H](Cc1cnc[nH]1)C(=O)N[C@@H](Cc1cnc[nH]1)C(=O)N[C@H](C(=O)N[C@@H](Cc1cnc[nH]1)C(=O)N[C@@H](Cc1cnc[nH]1)C(=O)N[C@@H](Cc1cnc[nH]1)C(N)=O)[C@@H](C)CC [IHHIHHH]
MIC [24]: ≥ 64 µM

MIC [1]: 16 µM (≈ 38.3 µg/mL) | MIC [2]: 2 µM (≈ 4.79 µg/mL)
SMILES: CC[C@H](C)[C@H](N)C(=O)N[C@@H](Cc1c[nH]c2ccccc12)C(=O)N[C@@H](Cc1c[nH]c2ccccc12)C(=O)N[C@@H](C)C(=O)N[C@@H](CCCCN)C(=O)N[C@@H](Cc1c[nH]c2ccccc12)C(=O)NCC(=O)N[C@@H](CC(C)C)C(=O)N[C@@H](CCCCN)C(=O)N[C@@H](Cc1c[nH]c2ccccc12)C(=O)N[C@@H](CC(C)C)C(=O)N[C@@H](CCCN=C(N)N)C(=O)N[C@@H](Cc1ccc(O)cc1)C(=O)N[C@@H](CCCN=C(N)N)C(=O)N[C@@H](CCCN=C(N)N)C(=O)N[C@H](C(=O)N[C@@H](Cc1ccc(O)cc1)C(=O)O)[C@@H](C)CC [IWWAKWGLKWLRYRRIY]

MIC [12]: 6.3 µM (≈ 9.02 µg/mL) | MIC [25]: > 50 µM | MIC [13]: ≥ 50 µM | MIC [14]: 6.3 µM (≈ 9.02 µg/mL) | MIC [15]: ≥ 50 µM | MIC [16]: 6.3 µM (≈ 9.02 µg/mL) | MIC [17]: 6.3 µM (≈ 9.02 µg/mL) | MIC [19]: 50 µM (≈ 71.6 µg/mL) | MIC [20]: 3.1 µM (≈ 4.44 µg/mL)
SMILES: CC(C)C[C@H](NC(=O)[C@H](C)NC(=O)CNC(=O)[C@H](CC(C)C)NC(=O)[C@@H](N)CCCCN)C(=O)N[C@@H](Cc1c[nH]c2ccccc12)C(=O)N[C@@H](CC(N)=O)C(=O)N[C@H](C(=O)N[C@@H](C)C(=O)N[C@@H](CCCCN)C(=O)N[C@@H](CO)C(=O)N[C@H](C(=O)N[C@@H](Cc1ccccc1)C(N)=O)C(C)C)C(C)C [KLGALWNVAKSVF]

The next lines start with the compound.

SMILES: CC[C@H](C)[C@H](NC(=O)CNC(=O)[C@H](CCC(N)=O)NC(=O)[C@H](C)NC(=O)[C@@H](NC(=O)[C@H](CCCCN)NC(=O)[C@H](CCCCN)NC(=O)[C@H](CC(C)C)NC(=O)[C@H](C)NC(=O)[C@H](CC(N)=O)NC(=O)[C@H](CC(C)C)NC(=O)CN)C(C)C)C(=O)N[C@@H](Cc1cnc[nH]1)C(=O)N[C@@H](CCC(=O)O)C(=O)N[C@@H](C)C(=O)N[C@@H](C)C(=O)N[C@@H](CCCCN)C(=O)N[C@@H](CC(C)C)C(=O)N[C@H](C(=O)N[C@@H](CC(N)=O)C(=O)N[C@@H](CC(N)=O)C(=O)N[C@@H](Cc1cnc[nH]1)C(=O)N[C@H](C(=O)N[C@@H](CCC(N)=O)C(N)=O)C(C)C)[C@@H](C)CC [GLNALKKVAQGIHEAAKLINNHVQ]
MIC [3]: 4 µM and 8 µM | MIC [4]: ≥ 64 µM | MIC [5]: 2 µM and 1 µM | MIC [6]: ≥ 32 µM | MIC [7]: 1.5 µM and 1 µM | MIC [8]: ≥ 32 µM and 16 µM | MIC [9]: 6 µM and 8 µM | MIC [10]: ≥ 32 µM and 16 µM

SMILES: CC(C)C[C@H](NC(=O)[C@H](C)NC(=O)CNC(=O)[C@H](CC(C)C)NC(=O)[C@@H](N)Cc1ccccc1)C(=O)N[C@@H](Cc1c[nH]c2ccccc12)C(=O)N[C@@H](CC(N)=O)C(=O)N[C@H](C(=O)N[C@@H](Cc1ccccc1)C(=O)N[C@@H](CCCCN)C(=O)N[C@@H](CO)C(=O)N[C@H](C(=O)N[C@@H](Cc1ccccc1)C(N)=O)C(C)C)C(C)C [FLGALWNVFKSVF]
MIC [11]: 0.8 µM (≈ 1.22 µg/mL) | MIC [12]: 0.4 µM (≈ 0.611 µg/mL) | MIC [13]: ≥ 50 µM | MIC [14]: 0.8 µM (≈ 1.22 µg/mL) | MIC [15]: 3.1 µM (≈ 4.73 µg/mL) | MIC [16]: 1.6 µM (≈ 2.44 µg/mL) | MIC [17]: 1.6 µM (≈ 2.44 µg/mL) | MIC [18]: > 50 µM | MIC [19]: 0.8 µM (≈ 1.22 µg/mL) | MIC [20]: 6.3 µM (≈ 9.62 µg/mL)

SMILES: CC[C@H](C)[C@H](NC(=O)[C@H](C)NC(=O)[C@H](CCC(=O)O)NC(=O)[C@H](Cc1cnc[nH]1)NC(=O)[C@H](C)NC(=O)CNC(=O)[C@H](CCC(N)=O)NC(=O)[C@H](Cc1ccccc1)NC(=O)[C@@H](NC(=O)[C@H](CCCCN)NC(=O)[C@H](CCCCN)NC(=O)[C@H](CC(C)C)NC(=O)[C@H](C)NC(=O)[C@H](CC(N)=O)NC(=O)[C@H](CC(C)C)NC(=O)CN)C(C)C)C(=O)N[C@@H](CCCCN)C(=O)N[C@@H](CC(C)C)C(=O)N[C@@H](C)C(=O)N[C@@H](CC(N)=O)C(=O)N[C@@H](CC(N)=O)C(=O)N[C@@H](Cc1cnc[nH]1)C(=O)N[C@H](C(=O)N[C@@H](CCC(N)=O)C(N)=O)C(C)C [GLNALKKVFQGAHEAIKLANNHVQ]
MIC [3]: 8 µM and 16 µM | MIC [4]: ≥ 64 µM | MIC [5]: 2 µM (≈ 5.2 µg/mL) | MIC [6]: ≥ 64 µM | MIC [7]: 6 µM and 2 µM | MIC [9]: 8 µM (≈ 20.8 µg/mL) | MIC [10]: ≥ 64 µM
